Data on 21 molecules can be found in US12594261B2, “Use of heterocyclic derivatives with cardiomyocyte proliferation activity for treatment of heart diseases” (SHANGHAI EAST HOSPITAL (EAST HOSPITAL, TONGJI UNIVERSITY …, priority 2019, dated 2026).

The test system of this assay is neonatal rat ventricular myocytes (NRVMs). The experiment in a line: Myocyte proliferation assay (EdU) in neonatal rat ventricular myocytes. Format: cell-based. The conditions noted are these: Rattus norvegicus, Ventricular myocyte, growth relative to blank myocyte growth without compound added; for activation at 1 µM: 1 uM compound; for activation at 3 µM: 3 uM compound; for activation at 10 µM: 10 uM compound. How it is done:
1. Isolation of and Culture Neonatal Rat Ventricular Myocytes (NRVMs)
Ventricles from neonatal rats were separated from the atria, cut into small pieces (about 2×2 mm^2) and then dissociated in Ca^2+-free HBSS containing 0.125 mg ml-1 trypsin (Gibco), 10 μg ml-1 DNase II (Sigma) and 0.1 mg ml-1 collagenase type IV (Sigma). The digestion was carried out under constant stirring at 37° C. for 5 min. The supernatant was collected with FBS (Gibco) after each digestion period. After digestion, the collected supernatant was centrifuged at 1000 g for 10 min at room temperature, and then cell pellets were resuspended in DMEM (Gibco) supplemented with 10% FBS and with 100 uM 5-bromo-2′-deoxyuridine (Sigma). The resuspended cells were passed through a cell strainer ([…], BD Falcon) and seeded onto 100-mm plastic dishes for 2 h at 37° C. in a 5% CO2 to remove fibroblasts, the supernatant was then collected and plated onto 1% gelatin (Sigma)-coated dishes. 24 h after the seeding, the medium was changed to DMEM (Gibco) containing 2% FBS (Gibco), 1% insulin-transferrin-selenium (ITS; Gibco), 1% Penicillin-Streptomycin (Gibco). After 24 hours of low serum culture, remove the medium with DMEM (Gibco) containing 6% FBS (Gibco), 1% insulin-transferrin-selenium (ITS; Gibco), 1% Penicillin-Streptomycin (Gibco), different concentrations of compounds (the compounds were pre-diluted in the medium and the drug concentration was 10 uM, 3 uM, 1 uM, fully mixed). After 36 h add Edu substrate (Invitrogen) according to the manufacturer's guidelines, and then after 12 h cell can be used.
2.1. Immobilization: Remove the medium and fix the cells with […] in 200 ul (whichever is covered) for 15 min and wash the cells twice with 500 ul of PBS for 5 min each time.
2.2. Broken membrane: Add 200 ul of 0.3% Triton-X 100 (diluted in PBS) to each well, incubate for 10-15 min at room temperature (the time should not be too long), and wash the cells twice with 500 ul of PBS for 5 min each time.
2.3. Blocking: Add 200 ul of 10% normal goat serum (diluted with 0.1% PBST) to each well, incubate for 1 h at room temperature, and wash twice with 500 ul of 0.1% PBST for 5 min each time.
2.4. Primary antibody: dilute the primary antibody (abcam, ab8295) to blocking solution at a ratio of 1:200, add 100 ul per well, incubate for 1 h at room temperature (may be slightly longer than 2-3 h), wash the cells twice with 500 ul 0.1% PBST for 5 min each time.
2.5. Secondary antibody: Dilute the fluorescently labeled secondary antibody (abcam, ab150117) into blocking solution at a ratio of 1:200, add 100 ul per well, incubate for 1 h at room temperature (the time should not be too long), wash the cells twice with 0.1% PBST for 5 min each time, pay attention to the whole process. Protected from light.
2.6. Edu staining (Invitrogen C10338)
2.6.1 Prepare Click-iT® reaction cocktail according to Table 3. It was important to add the ingredients in the order listed in the table; otherwise, the reaction would not proceed optimally. Use the Click-iT® reaction cocktail within 15 minutes of preparation.
2.6.2 Add 0.1 mL of Click-iT® reaction cocktail to each well containing a coverslip. Rock the plate briefly to ensure that the reaction cocktail is distributed evenly over the coverslip.
2.6.3 Incubate the plate for 30 minutes at room temperature, protected from light.
2.6.4 Remove the reaction cocktail, then wash the cells twice with 0.1% PBST for 5 min each time.
2.7. DAPI staining: DAPI stain was diluted to PBS at a ratio of 1:1000, 100 ul per well, incubated for 30 min at room temperature, and the cells were washed twice with PBS for 5 min each.
We used Molecular Devices' Image Xpress Micro Confocal for high-throughput photo and data analysis.

Molecules are shown by their SMILES.

Take `O=C1NC(Nc2ccccn2)=N/C1=C\c1ccc2c(c1)OCO2` [TJU-B097, (4Z)-4-[(2H-1,3-benzodioxol-5-yl)methylidene]-2-[(pyridin-2-yl)amino]-4,5-dihydro-1H-imidazol-5-one]: the activation at 1 µM is less than 10%, the activation at 3 µM was less than 10% and the activation at 10 µM was less than 10%.
With `N#Cc1ccc(NC2=N/C(=C\c3ccc4c(c3)OCO4)C(=O)N2)cc1` [TJU-B058, 4-{[(4Z)-4-[(2H-1,3-benzodioxol-5-yl)methylidene]-5-oxo-4,5-dihydro-1H-imidazol-2-yl]amino} benzonitrile], the activation at 1 µM fell in the range of 10 to 50%, the activation at 3 µM is less than 10% and the activation at 10 µM is less than 10%.
Turning to `O=C1NC(NCC2CC2)=N/C1=C\c1ccc2c(c1)OCO2` [TJU-B029, (4Z)-4-[(2H-1,3-benzodioxol-5-yl)methylidene]-2-[(cyclopropylmethyl)amino]-4,5-dihydro-1H-imidazol-5-one], the activation at 1 µM was less than 10%, the activation at 3 µM was less than 10% and the activation at 10 µM was in the range of 10 to 50%.
Regarding `COc1cc(/C=C2\N=C(N)NC2=O)cc2c1OCO2` [TJU-B065, (4Z)-2-amino-4-[(7-methoxy-2H-1,3-benzodioxol-5-yl)methylidene]-4,5-dihydro-1H-imidazol-5-one], the activation at 1 µM is less than 10%, the activation at 3 µM is less than 10% and the activation at 10 µM was less than 10%.
`CN1C(=O)/C(=C/c2ccc3c(c2)OCO3)N=C1Nc1ccc2c(c1)OCO2` [TJU-B088, (4Z)-2-[(2H-1,3-benzodioxol-5-yl)amino]-4-[(2H-1,3-benzodioxol-5-yl)methylidene]-1-methyl-4,5-dihydro-1H-imidazol-5-one] had an activation at 1 µM of 10 to 50%, an activation at 3 µM of less than 10% and an activation at 10 µM of less than 10%.
`COc1ccc(/C=C2\N=C(Nc3ccccc3)NC2=O)cc1OC` [TJU-B085, (4Z)-4-[(3,4-dimethoxyphenyl)methylidene]-2-(phenylamino)-4,5-dihydro-1H-imidazol-5-one] returned an activation at 1 µM of less than 10%, an activation at 3 µM of less than 10% and an activation at 10 µM of less than 10%.
`Nc1ccc(NC2=N/C(=C\c3ccc4c(c3)OCO4)C(=O)N2)cc1` [TJU-B021, (4Z)-2-[(4-aminophenyl)amino]-4-[(2H-1,3-benzodioxol-5-yl)methylidene]-4,5-dihydro-1H-imidazol-5-one] registered an activation at 1 µM of less than 10%, an activation at 3 µM of less than 10% and an activation at 10 µM of more than 50%.
The molecule `CN1C(=O)/C(=C/c2ccc(F)cc2)N=C1N` [TJU-B050, (4Z)-2-amino-4-[(4-fluorophenyl)methylidene]-1-methyl-4,5-dihydro-1H-imidazol-5-one] registered an activation at 1 µM of less than 10%, an activation at 3 µM of less than 10% and an activation at 10 µM of 10 to 50%.
`CN1C(=O)/C(=C/c2ccc3c(c2)OCO3)N=C1N` [TJU-B057, (4Z)-2-amino-4-[(2H-1,3-benzodioxol-5-yl)methylidene]-1-methyl-4,5-dihydro-1H-imidazol-5-one]: the activation at 1 µM was 10 to 50%, the activation at 3 µM was less than 10% and the activation at 10 µM was less than 10%.
`COc1cc(/C=C2\N=C(Nc3ccccc3)NC2=O)cc2c1OCO2` [TJU-B051, (4Z)-4-[(7-methoxy-2H-1,3-benzodioxol-5-yl)methylidene]-2-(phenylamino)-4,5-dihydro-1H-imidazol-5-one] showed an activation at 1 µM of less than 10%, an activation at 3 µM of less than 10% and an activation at 10 µM of 10 to 50%.
In turn, `CCNC1=N/C(=C\c2ccc3c(c2)OCO3)C(=O)N1` [TJU-B040, (4Z)-4-[(2H-1,3-benzodioxol-5-yl)methylidene]-2-(ethylamino)-4,5-dihydro-1H-imidazol-5-one] had an activation at 1 µM of 10 to 50%, an activation at 3 µM of 10 to 50% and an activation at 10 µM of 10 to 50%.
As for `COc1ccccc1NC1=N/C(=C\c2ccc3c(c2)OCO3)C(=O)N1` [TJU-B254, (4Z)-4-[(2H-1,3-benzodioxol-5-yl)methylidene]-2-[(2-methoxyphenyl)amino]-4,5-dihydro-1H-imidazol-5-one], the activation at 1 µM was less than 10%, the activation at 3 µM is less than 10% and the activation at 10 µM is less than 10%.
In the case of `O=C1NC(Nc2ccccc2)=N/C1=C\c1cc2c(cc1Cl)OCO2` [TJU-B011, (4Z)-4-[(6-chloro-2H-1,3-benzodioxol-5-yl)methylidene]-2-(phenylamino)-4,5-dihydro-1H-imidazol-5-one], the activation at 1 µM is 10 to 50%, the activation at 3 µM was 10 to 50% and the activation at 10 µM is more than 50%.
The molecule `O=C1NC(Nc2ccccc2)=NC1Cc1ccc2c(c1)OCO2` (stereo not drawn) [TJU-B005, 4-[(2H-1,3-benzodioxol-5-yl)methyl]-2-(phenylamino)-4,5-dihydro-1H-imidazol-5-one] yielded an activation at 1 µM of 10 to 50%, an activation at 3 µM of less than 10% and an activation at 10 µM of more than 50%.
The corresponding values for `CC(C)NC1=N/C(=C\c2ccc3c(c2)OCO3)C(=O)N1` [TJU-B038, (4Z)-4-[(2H-1,3-benzodioxol-5-yl)methylidene]-2-[(propan-2-yl)amino]-4,5-dihydro-1H-imidazol-5-one] are 10 to 50%, 10 to 50% and 10 to 50%.
`O=C1NC(NC2CCCCC2)=N/C1=C\c1ccc2c(c1)OCO2` [TJU-B253, (4Z)-4-[(2H-1,3-benzodioxol-5-yl)methylidene]-2-(cyclohexylamino)-4,5-dihydro-1H-imidazol-5-one] had an activation at 1 µM of less than 10%, an activation at 3 µM of less than 10% and an activation at 10 µM of less than 10%.
In turn, `O=C1NC(c2ccccc2)=N/C1=C\c1ccc2c(c1)OC(F)(F)O2` [TJU-B063, (4Z)-4-[(2,2-difluoro-2H-1,3-benzodioxol-5-yl)methylidene]-2-phenyl-4,5-dihydro-1H-imidazol-5-one] displayed an activation at 1 µM of less than 10%, an activation at 3 µM of more than 50% and an activation at 10 µM of less than 10%.
`CN1C(=O)/C(=C/c2cccc(Cl)c2)N=C1N` [TJU-B056, (4Z)-2-amino-4-[(3-chlorophenyl)methylidene]-1-methyl-4,5-dihydro-1H-imidazol-5-one] had an activation at 1 µM of less than 10%, an activation at 3 µM of less than 10% and an activation at 10 µM of less than 10%.
Molecule `CN1C(=O)/C(=C/c2ccc3c(c2)OCO3)N=C1NCC1CC1` [TJU-B052, (4Z)-4-[(2H-1,3-benzodioxol-5-yl)methylidene]-2-[(cyclopropylmethyl)amino]-1-methyl-4,5-dihydro-1H-imidazol-5-one] yielded an activation at 1 µM of 10 to 50%, an activation at 3 µM of 10 to 50% and an activation at 10 µM of 10 to 50%.
`NC1=N/C(=C\c2ccc3c(c2)OC(F)(F)O3)C(=O)N1` [TJU-B049, (4Z)-2-amino-4-[(2,2-difluoro-2H-1,3-benzodioxol-5-yl)methylidene]-4,5-dihydro-1H-imidazol-5-one] yielded an activation at 1 µM of 10 to 50%, an activation at 3 µM of less than 10% and an activation at 10 µM of 10 to 50%.
Molecule `CN1C(=O)/C(=C/c2ccccc2)N=C1N` [TJU-B045, (4Z)-2-amino-1-methyl-4-(phenylmethylidene)-4,5-dihydro-1H-imidazol-5-one] returned an activation at 1 µM of less than 10%, an activation at 3 µM of less than 10% and an activation at 10 µM of 10 to 50%.
